Test results published in patent US20220395522A1, “Methods of Use of Glucosamine for Increasing Nitrogen Retention” (TSI Bioproducts (Xuzhou) Co., Ltd., priority 2021, published 2022).

Assay: Body mass, heart rate and blood pressure in randomized, double-blind, placebo-controlled, cross-over supplementation study
Format: in vivo, human
Settings: GLU condition, mean ± SD
Procedure: A randomized, double-blind, placebo-controlled, cross-over study design was conducted on healthy males and females. Participants were instructed to report to a laboratory after observing an overnight (8 to 10-hour) fast while maintaining adequate hydration. Participants were asked to abstain from exercise and avoid alcohol and caffeine consumption for 12 hours prior to each study visit. All participants first completed an initial eligibility visit during which a comprehensive medical history, consent document, and body mass index (BMI) assessment were completed. Results from the BMI assessment was used to finalize eligibility. Once deemed eligible, participants were provided with supplies to begin the study protocol.
The remainder of the study consisted of two identical patterns of testing with the exception of what supplementation protocol was followed. FIG. 1 provides a flowchart of the experimental design. Prior to each visit, food and physical activity logs were completed encompassing four days prior to the scheduled laboratory visit. The four days consisted of two weekend days and two weekdays. Each participant reported to the laboratory for a baseline measurement of height, weight, heart rate, and blood pressure. During this visit, participants completed the Bristol Stool Chart and Gastrointestinal Symptom Rating Scale (GSRS) to assess bowel habits and potential gastrointestinal symptoms. Participants were given instructions on how to collect a stool sample and were instructed to do so within 24 hours of each planned study visit. At the completion of this study visit, participants were provided with their first assigned supplement (either PLA [placebo] or GLU [glucosamine]) and instructed to begin supplementation 21 days prior to their second visit. Participants were instructed to collect their second stool sample on the day of their final supplementation dose. On the morning of their second study visit, participants reported to the laboratory after following identical pre-study instructions as previous visits (i.e., fasting, abstention from caffeine and exercise). Study participants again completed assessments for height, weight, heart rate, blood pressure, and questionnaires regarding their bowel habits and gastrointestinal symptoms while also providing their second stool sample and turning in completed food and activity logs. A washout period lasting a minimum of 14 days and a maximum of 21 days separated each phase of the crossover as shown in FIG. 1.
In a double-blind manner, a glucosamine supplement (GLU) or a maltodextrin placebo (PLA) was distributed in identical opaque capsules to all participants. On a daily basis, participants were instructed to ingest three capsules, each containing 1,000 mg of glucosamine hydrochloride (GlucosaGreen®, TSI Group Ltd. MT, USA) or a placebo (maltodextrin) identical in appearance for a total of 21 days. Each visit at the beginning of the supplementation regimen (Visits 1 and 4, respectively; See FIG. 1) occurred on or before the first day of supplementation while the final day of supplementation occurred the day before each participant's follow-up visit for that study period (Visits 2 and 4, respectively). Participants were instructed to ingest the supplement 15-30 minutes before breakfast with eight fluid ounces of cold water. In the case of a missed dose, participants were instructed to consume the missed dose as soon as possible with a meal. […] The dose of maltodextrin used in the following examples was two to five-fold lower, respectively, than these investigations.
Height and weight were measured for every participant without shoes and in minimal clothing using a standardized wall-mounted stadiometer (Tanita, model #HR-200, Tokyo, Japan) and a self-calibrating digital scale (Tanita, model #BWB-627A Class III, Tokyo, Japan). Prior to heart rate and blood pressure measurements, participants rested in a seated position for five minutes. […]

[1] = Post 21 days, 3 x 1,000 mg/day oral

Compound: Cl.N[C@H]1C(O)O[C@H](CO)[C@@H](O)[C@@H]1O (stereo partly drawn) [GLU, glucosamine hydrochloride]
- Diastolic BP [1]: 77.0 ± 9.8 mmHg
- Heart Rate [1]: 63.1 ± 8.1 beats/min
- Systolic BP [1]: 119.4 ± 10.8 mmHg
- Diastolic BP (Pre (baseline)): 73.9 ± 9.3 mmHg
- Heart Rate (Pre (baseline)): 66.8 ± 7.7 beats/min
- Systolic BP (Pre (baseline)): 121.7 ± 14.2 mmHg
